Laboratory results as given in patent EP1595878A1, “INDOLE DERIVATIVES WITH APOPTOSIS INDUCING ACTIVITY” (Zentaris GmbH, priority 2004, dated 2005).
≈ marks a conversion by molar mass, not a printed value. Where two headings read alike, the source gives them in different places.

Tests used:
[1] = format: physicochemical; details: water, at most 1 % DMSO added
From the text: Die Bestimmung der Sättigungslöslichkeit in Wasser für die Verbindungen 1, 2, 10 und 14 erfolgte wie nachfolgend beschrieben. Zum Anlösen der Substanzen und um die Benetzung der Proben zu verbessern, wurde maximal 1 % DMSO zugesetzt. Zur Überprüfung des Gehaltes wurde eine HPLC-UV-Methode angewandt. Die Ergebnisse sind in der nachfolgenden Tabelle 5 zusammengefasst: Tabelle 5: […]

LT12/mdr = experiment: XTT proliferation assay, resistant LT12/mdr; format: cell-based; details: Rattus norvegicus
From the text: (§1) Die Substanzen 1, 2, 4, 9, 11, 12 , 13 und 15 wurden in einem Proliferationstest an etablierten Tumorzelllinien auf ihre anti-proliferative Aktivität hin untersucht (D.A. Scuderio et al. Cancer Res. 1988, 48, 4827-4833). Der verwendete Test bestimmt die zelluläre Dehydrogenase-Aktivität und ermöglicht eine Bestimmung der Zellvitalität und indirekt der Zellzahl. Bei den verwendeten Zelllinien handelt es sich um die humane Cervixkarzinom Zelllinie KB/HeLa (ATCC CCL17), die ovariale Adenokarzinomzelllinie SKOV-3 (ATCC HTB77), die humane Glioblastom Zelllinie SF-268 (NCI 503138) und die Lungenkarzinom Zelllinie NCI-H460 (NCI 503473). Tabelle 1:
(§2) Zur weiteren Charakterisierung wurden die Substanzen 1, 2, 4 und 11 gegenüber multi drug resistenten Zelllinien im Vergleich zu den nicht-resistenten Wildtypzelllinien untersucht.
(§3) Bei den untersuchten Zelllinien handelt es sich um die murine L1210, die akute myeloische Leukaemie Zelllinie LT12 und um die resistenten Linien L1210/mdr und LT12/mdr. Außerdem wurden die murine P388 Zelllinie (methyl-cholanthreneinduced lymphoid neoplasm) sowie die Doxorubicin-resistente P388 als Testsysteme herangezogen.

[2] = system: Doxorubicin-resistente P388; experiment: XTT proliferation assay, doxorubicin-resistant P388; format: cell-based, murine; details: Mus musculus
From the text: as §1, §2, §3

KB/HeLa Zellen = experiment: Cell cycle analysis (G2/M arrest); format: cell-based; details: Homo sapiens, read-out: EC50 in nM (50% cells in G2/M)
From the text: Der Zellzyklus umfasst die Entwicklung der Zelle von einer Zellgeneration zur nächsten.
Während der Ruhephase (G0) und präsynthetischen Phase (G1) besitzt die Zelle einen diploiden Chromosomensatz (2c). In der Synthesephase (S) wird die DNA-Menge durch Replikation vermehrt. Die S-Phase endet mit Erreichen der prämitotischen Phase (G2M), in der die Zelle einen reduplizierten Chromosomenbestand (4c) und verdoppelten DNA-Gehalt aufweist. In der nachfolgenden, kurzdauernden Mitosephase (M) kommt es zur gleichmäßigen Aufteilung der reduplizierten Chromosomen auf zwei Tochterzellen, die dann jeweils wieder einen diploiden DNA Gehalt zeigen und sich in der G01-Phase befinden, so daß der Zellzyklus neu beginnen kann.
Für die Zellzyklusanalyse wurden KB/HeLa Zellen mit den Testsubstanzen in unterschiedlichen Konzentrationen (0.1-1000 nM) 24 Stunden bei 37°C behandelt.
Der prozentuale Anteil der in der G2/M Phase des Zellzyklus arrettierten Zellen nach Behandlung mit Referenz- oder ausgewählten Testsubstanzen ist in der nachfolgenden Tabelle 4 dargestellt. Die Ergebnisse wurden mit einer speziellen Analysesoftware (ModFit™) ausgewertet.

U-937 Zelllinie = experiment: CDD plus nucleosome ELISA test (apoptosis detection); format: cell-based; details: U-937, 1nM-10µM, 24 h treatment; for Nucleosomen im Zelllysat: cell lysate; for Nucleosomen im Zellkulturüberstand: culture supernatant
From the text: Die Kernfragmentierung ist eine Spätfolge apoptotischer Prozesse. Die dabei zu beobachtenden Veränderungen lassen sich auf durch Endonukleasen gespaltene DNA-Stränge und daraus resultierende Fragmentierung in Nucleosomen Partikel zurückführen.
Zum Nachweis der Nucleosomen Partikel wurde der von der Firma Roche Molecular Biochemicals beschriebene CDD^plus Nucleosomen ELISA Test eingesetzt. Hierzu untersuchte man die Verbindungen 1 und 2 an der U-937 Zelllinie bei unterschiedlichen Konzentrationen (1nM-10µM, 24 h Behandlung). (s. Figur 5 und Figur 6)

Rindertubulin = experiment: Inhibition of tubulin polymerisation in vitro; format: biochemical, Rind; details: for Hemmwirkung auf die Polymerisation von Tubulin: verbal summary of Table 3
From the text: Die Substanzen 1, 4, 9, 11, 12, 13 und 15 wurden in einem in-vitro Test auf Hemmung der Polymerisation von Rindertubulin getestet (D.M. Bollag et al. Cancer Res. 1995, 55, 2325-2333). In diesem Test wird durch Zyklen von Polymerisation und Depolymerisation aufgereinigtes Tubulin eingesetzt, welches durch Zugabe von GTP und Erwärmung zur Polymerisation gebracht wird. In Tabelle 3 sind die EC50 Werte der Polymerisationshemmung von Tubulin mit 30% assoziierten Proteinen (MAPs) angegeben.

human Topoisomerase II = human Topoisomerase II (Homo sapiens, UniProt P11388); experiment: pRYG relaxation assay for topoisomerase II activity; format: biochemical; details: compound 1 at 100, 31.6 and 10 µM; reference compounds at 316 and 100 µM
Experimental: Mit diesem Relaxationsassay konnte zusätzlich die inhibitorische Eigenschaft der erfindungsgemäßen Verbindungen auf Topoisomerase II gezeigt werden. Die Testung der erfindungsgemäßen Verbindung 1 erfolgte hierbei bei drei unterschiedlichen Konzentrationen (100, 31.6 und 10 µM). Zum Vergleich setzte man die Referenzverbindungen m-Amsacrin, Paclitaxel (Taxol) und Vincristine bei Konzentrationen von 316 und 100µM ein.
Zu 1µL vorgelegter Testsubstanz (20fach konzentriert in 100% DMSO) werden 2µL 10x Assay Puffer, 0,5µL pRYG DNA (125ng), 0,5µL human Topoisomerase II (1 unit) und 16µL H2O pipettiert und gemischt. Die Reaktionsansätze werden in den auf 37°C vorgeheizten Heizblock gestellt und 30min bei 37°C inkubiert. Die Inkubation wird nach Zugabe von 4µL 5x Stop Puffer abgestoppt. Danach werden 10µL des Ansatzes auf ein 1,2% Agarosegel mit 0,25µg/mL Ethidiumbromid aufgetragen und 2,5h bei 100V aufgetrennt. Zum Schluß wird das Gel unter UV Anregung fotografiert (s. Figur 3). Die Quantifizierung der Inhibierung der pRYG Relaxation erfolgt mit der GelPro®Analyzer Software (s. Figur 4).

L1210VCR = experiment: XTT proliferation assay, resistant L1210; format: cell-based, murine; details: Mus musculus
From the text: as §1, §2, §3

[3] = molecular target: humaner DNA-Topoisomerase II (Homo sapiens, UniProt P11388); experiment: kDNA decatenation assay for topoisomerase II activity; format: biochemical; details: compound 1 at 100, 31.6 and 10 µM; reference compounds at 100 µM
Experimental: In diesem von P. Arimondo (Anti-Cancer Drug Design 2000, 15 (6), 413-421) beschriebenen Assay wird kDNA mit humaner DNA-Topoisomerase II in Abwesenheit oder Gegenwart der Testverbindungen behandelt. Die Testung der erfindungsgemäßen Verbindung 1 erfolgte hierbei bei drei unterschiedlichen Konzentrationen (100, 31.6 und 10 µM). Zum Vergleich setzte man eine Positivkontrolle und die Referenzverbindungen m-Amsacrin (m-Amsa), Paclitaxel (Taxol) und Vincristine bei einer jeweiligen Konzentration von 100µM ein.
Zu 1µL vorgelegter Testsubstanz (20fach konzentriert in 100% DMSO) werden 2µL 10x Assay Puffer, 1µL kDNA (200ng), 0,5µL human Topoisomerase II (1unit) und 15,5µL H2O pipettiert und gemischt.
Die Reaktionsansätze werden in den auf 37°C vorgeheizten Heizblock gestellt und 10min bei 37°C inkubiert. Die Inkubation wird nach Zugabe von 4µL 5x Stop Puffer gestoppt und nachfolgend die Substanz mit CIA extrahiert. Danach werden 20µL des Überstandes auf ein 1 % Agarosegel mit 0,25µg/mL Ethidiumbromid aufgetragen und 1 h bei 100V aufgetrennt. Zum Schluss wird das Gel unter UV-Anregung fotografiert (s. Figur 1). Die Quantifizierung der Inhibierung der Decatenation von kDNA erfolgt mit der GelPro®Analyzer Software (s. Figur 2)

murine L1210 = experiment: XTT proliferation assay, L1210 wild type; format: cell-based; details: Mus musculus, L1210, read-out: XTT Proliferationsassay, EC50
From the text: as §1, §2, §3

[4] = system: ovariale Adenokarzinomzelllinie SKOV-3 (ATCC HTB77); experiment: XTT proliferation assay (cytotoxicity test), SKOV-3; format: cell-based; details: Homo sapiens, SK-OV-3; SKOV3; read-out: XTT Proliferationsassay, EC50
From the text: as §1, with “503473).” for “503473). Tabelle 1:”

[5] = system: humane Glioblastom Zelllinie SF-268 (NCI 503138); experiment: XTT proliferation assay (cytotoxicity test), SF-268; format: cell-based; details: Homo sapiens, read-out: XTT Proliferationsassay, EC50
From the text: as §1, with “503473).” for “503473). Tabelle 1:”

Melanom, MEXF462 = format: in vivo, Mäuse; details: 80 mg/kg p.o.; day 18
From the text: Die in vivo Aktivität und Verträglichkeit der erfindungsgemäßen Verbindung 2 wurde im Vergleich zu den Substanzen 10 und 14 in einem humanen Xenograft-Modell (Melanom, MEXF462) überprüft. Die Ergebnisse sind in der nachfolgenden Tabelle 6 zusammengefasst: in vivo Aktivitäten von Verbindung 2, 10 and 14 (Melanom; MEXF462) Tabelle 6: […]

[6] = system: Lungenkarzinom Zelllinie NCI-H460 (NCI 503473); experiment: XTT proliferation assay (cytotoxicity test), NCI-H460; format: cell-based; details: Homo sapiens, NCl-H460, read-out: XTT Proliferationsassay, EC50
From the text: as §1, with “503473).” for “503473). Tabelle 1:”

Mamma, MAXF857 = format: in vivo, Mäuse; details: 80 mg/kg p.o.
From the text: Die in vivo Aktivität und Verträglichkeit der erfindungsgemäßen Verbindung 2 wurde im Vergleich zu der Substanz 10 in einem weiteren humanen Xenograft-Modell (Mamma, MAXF857) überprüft. Die Ergebnisse werden in der nächsten Tabelle gezeigt: Effect of 2 and 10 on the Mammary Cancer MAXF857 Tabelle 7: […]

[7] = system: akute myeloische Leukaemie Zelllinie LT12; experiment: XTT proliferation assay, LT12 wild type; format: cell-based; details: Rattus norvegicus, LT12, read-out: XTT Proliferationsassay, EC50
From the text: as §1, §2, §3

[8] = system: murine P388 Zelllinie (methyl-cholanthreneinduced lymphoid neoplasm); experiment: XTT proliferation assay, P388 wild type; format: cell-based; details: Mus musculus, P388, read-out: XTT Proliferationsassay, EC50
From the text: as §1, §2, §3

[9] = system: humane Cervixkarzinom Zelllinie KB/HeLa (ATCC CCL17); experiment: XTT proliferation assay (cytotoxicity test), KB/HeLa; format: cell-based; details: Homo sapiens, read-out: XTT Proliferationsassay, EC50
From the text: as §1, with “503473).” for “503473). Tabelle 1:”

[10] = LT12, LT12mdr, read-out: XTT Proliferationsassay, EC50
[11] = P388, P388ADR, read-out: XTT Proliferationsassay, EC50
[12] = KB/HeLa cells, 0.1-1000 nM, 24 h at 37°C
[13] = L1210, L1210VCR, read-out: XTT Proliferationsassay, EC50

Chain of humaner DNA-Topoisomerase II (P11388 whole entry): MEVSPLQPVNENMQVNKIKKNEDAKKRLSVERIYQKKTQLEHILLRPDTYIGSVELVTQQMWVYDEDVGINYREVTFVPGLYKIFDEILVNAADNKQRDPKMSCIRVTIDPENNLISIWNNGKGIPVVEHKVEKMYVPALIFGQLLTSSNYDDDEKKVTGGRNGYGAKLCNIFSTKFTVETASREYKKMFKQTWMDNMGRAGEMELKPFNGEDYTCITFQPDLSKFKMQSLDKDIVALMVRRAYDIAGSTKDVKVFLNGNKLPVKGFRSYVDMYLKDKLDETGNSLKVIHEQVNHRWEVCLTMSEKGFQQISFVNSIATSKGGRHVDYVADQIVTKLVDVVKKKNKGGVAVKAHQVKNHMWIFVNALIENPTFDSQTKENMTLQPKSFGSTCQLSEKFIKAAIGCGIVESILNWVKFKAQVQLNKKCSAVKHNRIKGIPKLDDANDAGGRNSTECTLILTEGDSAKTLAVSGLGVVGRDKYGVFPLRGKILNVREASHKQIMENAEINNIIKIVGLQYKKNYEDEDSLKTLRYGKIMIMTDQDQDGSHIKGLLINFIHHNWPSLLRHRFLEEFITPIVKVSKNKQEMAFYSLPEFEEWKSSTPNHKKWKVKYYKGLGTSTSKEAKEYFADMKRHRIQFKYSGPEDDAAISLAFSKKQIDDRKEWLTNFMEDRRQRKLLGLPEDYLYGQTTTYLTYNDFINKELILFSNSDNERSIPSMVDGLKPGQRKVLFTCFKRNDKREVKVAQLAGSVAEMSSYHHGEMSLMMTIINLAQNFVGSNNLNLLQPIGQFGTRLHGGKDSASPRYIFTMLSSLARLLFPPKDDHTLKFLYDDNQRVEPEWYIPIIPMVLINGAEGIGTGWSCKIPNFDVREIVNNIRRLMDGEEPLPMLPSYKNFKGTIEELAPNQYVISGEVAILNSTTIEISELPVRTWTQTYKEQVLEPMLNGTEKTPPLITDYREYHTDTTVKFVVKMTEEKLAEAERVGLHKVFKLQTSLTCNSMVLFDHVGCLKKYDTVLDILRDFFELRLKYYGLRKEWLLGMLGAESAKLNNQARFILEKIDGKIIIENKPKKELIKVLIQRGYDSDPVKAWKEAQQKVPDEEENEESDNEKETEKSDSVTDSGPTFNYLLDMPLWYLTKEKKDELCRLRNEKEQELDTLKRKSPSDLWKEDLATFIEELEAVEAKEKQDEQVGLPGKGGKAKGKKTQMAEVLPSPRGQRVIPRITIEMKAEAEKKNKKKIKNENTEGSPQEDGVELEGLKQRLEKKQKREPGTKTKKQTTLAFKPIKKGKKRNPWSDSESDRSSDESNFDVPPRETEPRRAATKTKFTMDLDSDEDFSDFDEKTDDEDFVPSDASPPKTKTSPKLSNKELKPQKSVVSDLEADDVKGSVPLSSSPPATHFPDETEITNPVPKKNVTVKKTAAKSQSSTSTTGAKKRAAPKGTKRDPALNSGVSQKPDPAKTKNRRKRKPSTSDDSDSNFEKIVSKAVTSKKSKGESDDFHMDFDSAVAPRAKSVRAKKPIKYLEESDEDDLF
Chain of human Topoisomerase II (P11388 whole entry): as above

## O=C(Nc1cnc2nccnc2c1)C(=O)c1cn(Cc2ccc(Cl)cc2)c2ccccc12 [Verbindung 1, 2-[1-(4-Chlor-benzyl)-1H-indol-3-yl]-2-oxo-N-pyrido[2,3-b]pyrazin-7-yl-acetamid]
[1]
  Sättigungslöslichkeit in Wasser: 25.0 µg/mL
LT12/mdr; [10]
  EC50: 0.017 µg/mL (≈ 0.0385 µM)
[2]; [11]
  EC50: 0.019 µg/mL (≈ 0.043 µM)
KB/HeLa Zellen; [12]
  EC50: 25.2 nM
U-937 Zelllinie
  Nucleosomen im Zelllysat: konzentrationsabhängiger Anstieg
  Nucleosomen im Zellkulturüberstand: kein signifikanter Anstieg
Rindertubulin; tubulin with 30% associated proteins (MAPs), mean of two independent experiments
  Hemmung der Tubulin-Polymerisation, EC50: 0.71 µg/mL
Rindertubulin
  Hemmwirkung auf die Polymerisation von Tubulin: sehr potente Hemmwirkung
Human Topoisomerase II
  Hemmung der Topoisomerase II (Inhibierung der pRYG Relaxation): signifikante Hemmung
L1210VCR; [13]
  EC50: 0.021 µg/mL (≈ 0.0475 µM)
[3]
  Hemmung der Topoisomerase II (Inhibierung der Decatenation von kDNA): signifikante Hemmung

## CC(=O)N(C(=O)C(=O)c1cn(Cc2ccc(Cl)cc2)c2ccccc12)c1ccc2ncccc2c1 [Verbindung 2, N-{2-[1-(4-Chlor-benzyl)-1H-indol-3-yl]-2-oxo-acetyl}-N-chinolin-6-yl-acetamid]
Murine L1210
  EC50: 0.206 µg/mL (≈ 0.427 µM)
[1]
  Sättigungslöslichkeit in Wasser: 28.5 µg/mL
LT12/mdr; LT12, read-out: XTT Proliferationsassay, EC50
  EC50: 0.272 µg/mL (≈ 0.564 µM)
[4]
  EC50: 0.123 µg/mL (≈ 0.255 µM)
[5]
  EC50: 0.166 µg/mL (≈ 0.344 µM)
[2]; P388, read-out: XTT Proliferationsassay, EC50
  EC50: 0.215 µg/mL (≈ 0.446 µM)
KB/HeLa Zellen; HeLa, 24 h
  EC50: 125 nM
Melanom, MEXF462
  Optimale T/C % (Tag): 0.0%
U-937 Zelllinie
  Nucleosomen im Zelllysat: konzentrationsabhängiger Anstieg
  Nucleosomen im Zellkulturüberstand: kein signifikanter Anstieg
[6]
  EC50: 0.168 µg/mL (≈ 0.349 µM)
Mamma, MAXF857; day 10
  Optimale T/C % (Tag): 9.6% (10)
Mamma, MAXF857; dead animals / total
  Todesfällen: 0/6 Mäuse
[7]
  EC50: 0.225 µg/mL (≈ 0.467 µM)
L1210VCR; L1210, read-out: XTT Proliferationsassay, EC50
  EC50: 0.558 µg/mL (≈ 1.16 µM)
[8]
  EC50: 0.224 µg/mL (≈ 0.465 µM)
[9]
  EC50: 0.202 µg/mL (≈ 0.419 µM)

## O=C(Nc1ccc2[nH]ncc2c1)C(=O)c1cn(Cc2ccc(Cl)cc2)c2ccccc12 [Verbindung 4, 2-[1-(4-Chlor-benzyl)-1H-indol-3-yl]-N-(1H-indazol-5-yl)-2-oxo-acetamid]
LT12/mdr; [10]
  EC50: 0.093 µg/mL (≈ 0.217 µM)
[2]; [11]
  EC50: 0.231 µg/mL (≈ 0.539 µM)
KB/HeLa Zellen; [12]
  EC50: 252 nM
Rindertubulin
  Hemmwirkung auf die Polymerisation von Tubulin: sehr potente Hemmwirkung
L1210VCR; [13]
  EC50: 0.241 µg/mL (≈ 0.562 µM)
